Measurements from patent publication US20140106015A1, “COMPOSITION CONTAINING HEAT-TREATED POWDER OR EXTRACT OF GLYCINE SOJA AS ACTIVE GRADIENT FOR PREVENTION AND TREATMENT OF DIABETES MELLITUS AND DIABETIC COMPLICATIONS” (KOC BIOTEC CO LTD, priority 2011, published 2014).
Each block holds one compound with its values, some of them ahead of it.

Tests used:
Format in all cases: in vivo, mouse
[1] = test system: BKS.Cg-m+/+ Leprdb/J homozygous diabetic (db/db) mice; experiment: Experimental Example 5: efficacy comparison with anthocyanins, pinitol, banaba/Cr complex in db/db mice
Method: “Pinitol”: Product containing 95% or more of pinitol (Sigma-Aldrich) “Banaba/Cr complex”: Wellness Banaba Gold ChromeTM (containing 400 mg/g banaba leaf extract, 200 mg/g indigestible maltodextrin and 0.1 mg/g chromium) Male db/db mice, aged 3 weeks, were acclimatized to an animal breeding room for 1 week. 4 mice were assigned to each experimental group. […] All animals were fasted for 6 h from 9 a.m. to 3 p.m. every Wednesday. Blood samples were collected from the mouse tail vein and blood glucose levels were measured using a portable blood glucose meter (OneTOUCH@Ultra, Johnson & Johnson, USA). […] The following are a total of 8 experimental groups used. Classification of Experimental Groups • NC: […] After the drug (test material) was administered to each experimental group for 6 weeks, abdominal, epididymal, and inguinal adipose tissues were excised from each experimental animal. The total weight of the adipose tissues was measured. […] For the autopsy, each animal was fasted for 12 h. […] After plasma was separated, the levels of total cholesterol, high-density lipoprotein (HDL) cholesterol, low-density lipoprotein (LDL) cholesterol, triglyceride, BUN, and phospholipid in the plasma were measured using an automatic biochemical analyzer (Hitachi-720, Hitachi Medical, Japan). […] The levels of glucose and insulin in the serum were analyzed. Plasma was obtained as a sample in the same manner. The plasma insulin level was measured using a Mouse Insulin ELISA kit (Shibayagi, Japan) and an ELISA reader (Labsystems, Finland). Data obtained from the above experiments were expressed as mean±standard error and significance assay was determined using Student's T-test.

db/db mice [2] = experiment: Experimental Example 2: glycine soja streamed powder versus metformin in db/db mice, 6 weeks oral; conditions: age of 10 weeks, fasted about 16 h, DC and bean powder 2 g/kg/day, metformin 150 mg/kg/day
db/db mice [3] = experiment: as above; conditions: age of 10 weeks
Method: The glycine soja streamed powder (DC) was diluted with physiological saline and the dilution was orally administered in divided portions (each 0.2 ml) at 10 a.m. and 4 p.m. daily using a mouse sonde (2 g/kg/day). Metformin (1,1-dimethylbiguanide), which is a widely used hypoglycemic agent, was chosen as positive control. Metformin was dissolved in 0.25% carboxymethylcellulose (CMC) and administered orally in two divided portions (each 0.2 ml) in the same manner (150 mg/kg/day). The same amount of physiological saline as negative control was administered in the same manner. A general bean streamed powder was used as another comparative test group. The bean streamed powder was obtained in the same manner as in Example 1, except that bean was used instead of glycine soja. The bean streamed powder was administered orally twice a day in the same amount and manner as the glycine soja streamed powder (DC).
Male db/db mice, aged 3 weeks, were acclimatized to an animal breeding room for 1 week. 6 mice were assigned to each experimental group. The blood glucose levels of the animals were measured from the age of 4 weeks at intervals of 1 week for a total of 6 weeks. Drug was administered orally in divided portions (each 0.2 ml) at 10 a.m. and 4 p.m. daily using a mouse sonde. All animals were fasted for 6 h from 9 a.m. to 3 p.m. every Wednesday. Blood samples were collected from the mouse tail vein and blood glucose levels were measured using a portable blood glucose meter (OneTOUCH@Ultra. Johnson & Johnson, USA). Since serum for final biochemical analysis requires blood sampling after fasting for at least 12 h, blood glucose levels were measured at the final 8th week. 2 days after the measurement, an autopsy was conducted. For the autopsy, all animals were fasted for 12 h. Blood samples were drawn from the heart under ether anesthesia, put in tubes for serum separation, and centrifuged at 3000 rpm for 20 min to obtain serum samples, which were used as samples for the analysis of biochemical indices.
Experimental Group Classification • Control (db/db mice) (n=6) • Positive control (Metformin, 150 mg/kg/day, o.p) (n=6) • Glycine soja streamed powder (DC) (2.0 g/kg/day, o.p) (n=6) • Bean powder (2.0 g/kg/day, o.p) (n=6)
After a test material was administered to each experimental group for 6 weeks, blood glucose level was measured at the final 8th week. 2 days after the measurement, an autopsy was conducted. For the autopsy, each animal was fasted for 12 h. Blood was drawn from the heart under ether anesthesia, put in a tube for serum separation, and centrifuged at 3000 rpm for 20 min to obtain serum, which was used as a sample for the analysis of biochemical indices. The glucose and insulin levels of the serum were analyzed. Changes in the insulin level and insulin resistance index (HOMAIR) of each experimental group during administration for 8 weeks period were calculated by the following formulae. Plasma was obtained as a sample in the same manner. The level of insulin in the plasma was measured using a Mouse Insulin ELISA kit (Shibayagi, Japan) and an ELISA reader (Labsystems, Finland).
After a test material was administered to each experimental group for 6 weeks, abdominal, epididymal, and inguinal adipose tissues were excised from each experimental animal. The total weight of the adipose tissues was measured.
Blood was obtained in the same manner as in 1-3, put in a tube for serum separation, and centrifuged at 3000 rpm for 20 min to obtain serum, which was used as a sample for the analysis of biochemical indices. Total cholesterol, high-density lipoprotein (HDL) cholesterol, low-density lipoprotein (LDL) cholesterol, triglyceride, and phospholipid levels, which are indices of lipid contents in plasma and liver, in the plasma were measured using an automatic biochemical analyzer (Hitachi-720, Hitachi Medical, Japan). […]

[4] = db/db mice, 100 mg/kg/day, BANABA 300 mg/kg/day
[5] = DC and bean powder 2 g/kg/day, metformin 150 mg/kg/day
[6] = metformin 150 mg/kg/day, bean powder 2 g/kg/day

serum BUN level higher than non-treated group ([1]; No. 4 mouse of the Pinitol-administered group): ≥ 3 times | serum BUN level ([1]; No. 4 mouse of the Pinitol-administered group, 100 mg/kg/day, NC 30.2 mg/dL): 92.8 mg/dL
Structure (SMILES): CO[C@H]1[C@H](O)[C@@H](O)[C@@H](O)[C@H](O)[C@@H]1O [Pinitol, pinitol]
blood glucose level ([1]; db/db mice, 9th week, tail vein, fasted 6 h, oral 6 weeks, 100 mg/kg/day, BANABA 300 mg/kg/day): 231.8 mg/dL | blood glucose level lower than NC (hypoglycemic efficacy) ([1]; db/db mice, 9th week, 100 mg/kg/day, BANABA 300 mg/kg/day): 52.1% | daily food intake compared with non-treated group ([1]; db/db mice, after completion of the tests): smaller | serum low-density lipoprotein cholesterol level compared with non-treated group ([1]; db/db mice, age of 9 weeks): not substantially different | serum insulin level ([1]; db/db mice, age of 9 weeks, 100 mg/kg/day, BANABA 300 mg/kg/day): 6.6 ng/mL | serum insulin level lower than NC (suppressive efficacy on insulin resistance) ([1]; db/db mice, age of 9 weeks, NC 10.2 ng/ml): 35.3% | serum triglyceride (TG) level relative to non-treated group (NC) ([1]; db/db mice, age of 9 weeks, NC 22 mg/dL): approximately twice | serum total cholesterol level compared with non-treated group ([1]; db/db mice, age of 9 weeks, NC 168.3 mg/dL): not substantially different | adipose tissue weight lower than non-treated group (NC) ([1]; db/db mice, age of 10 weeks): about 5.4% | liver tissue weight compared with NC ([1]; db/db mice, age of 10 weeks): not substantially different | liver tissue weight lower than non-treated group (NC) ([1]; db/db mice, age of 10 weeks, p<0.05): about 7.0% | food efficiency ratio compared with non-treated group ([1]; db/db mice, for 5 weeks): similar | Food efficiency ratio (PER, %) ([1]; db/db mice, for 5 weeks, calculated from food intakes and body weight gains): 11.9 ± 1.28% | Body weight gain [1, 4]: 0.500 ± 0.05 g/day | Food intake [1, 4]: 4.20 g/day

Structure (SMILES): CN(C)C(=N)NC(=N)N [metformin, 1,1-dimethylbiguanide]
serum glucose level (db/db mice [2]): 376.0 mg/dL | serum high-density lipoprotein cholesterol level compared with non-administered group (db/db mice [3]): no significant differences | serum triglyceride level lower than non-administered group (NC) (db/db mice [3]; DC 2 g/kg/day, metformin 150 mg/kg/day): 38.8% | serum ALT level (db/db mice [3]; [5]): 54.9 U/L | serum AST level (db/db mice [3]; [5]): 120.0 U/L | serum glucose level lower than non-administered group (db/db mice [3]; [5]): 34.6% | serum triglyceride (TG) level (db/db mice [3]; [5]): 78.8 mg/dL | serum total cholesterol level compared with non-administered group (db/db mice [3]; metformin 150 mg/kg/day): low compared to that of the non-administered group, but there was no statistical significance | serum insulin level compared with non-administered group (db/db mice [3]; [6]): slightly lower than the serum insulin level of the non-administered group, but there were no statistical significances | serum low-density lipoprotein cholesterol level compared with non-administered group (db/db mice [3]; [6]): low compared to the low-density lipoprotein cholesterol level of the non-administered group, but there were no statistical significances | blood glucose level lower than non-administered group (NC) (db/db mice [3]; oral 6 weeks, DC and bean powder 2 g/kg/day, metformin 150 mg/kg/day): 34.6%
